Laboratory results: the NIST ThermoML archive (doi:10.1021/acs.jced.7b00078)
Numbers after ± are expanded uncertainties.

Details: Liquid; for mass density: 303.15 K, 101.33 kPa, Vibrating tube method; for vapor or sublimation pressure: Ebulliometric method (Recirculating still)

## CSSC [2,3-dithiabutane]
  mass density: 1051.14 ± 0.14 kg/m3
353.42 K
  vapor or sublimation pressure: 40 ± 0.13 kPa
382.87 K
  vapor or sublimation pressure: 101.33 ± 0.14 kPa

## CCCCO [butan-1-ol]
  mass density: 801.92 ± 0.14 kg/m3
366.81 K
  vapor or sublimation pressure: 40 ± 0.14 kPa
390.72 K
  vapor or sublimation pressure: 101.33 ± 0.14 kPa

## CCO [ethanol]
  mass density: 780.78 ± 0.15 kg/m3
329.63 K
  vapor or sublimation pressure: 40 ± 0.15 kPa
351.51 K
  vapor or sublimation pressure: 101.33 ± 0.15 kPa

## CO [methanol]
  mass density: 781.81 ± 0.15 kg/m3
315.8 K
  vapor or sublimation pressure: 40 ± 0.15 kPa
337.97 K
  vapor or sublimation pressure: 101.33 ± 0.15 kPa

## CCCO [propan-1-ol]
  mass density: 795.54 ± 0.15 kg/m3
347.65 K
  vapor or sublimation pressure: 40 ± 0.15 kPa
370.23 K
  vapor or sublimation pressure: 101.33 ± 0.15 kPa
